Measured values published in a melting point compilation (Tetko et al.; mined from patent text by program, amines drawn as free bases though some values may be those of a salt).

melting point [°C] | SMILES
129 to 130 | COC1=CC(=O)N(CC(=O)OCc2ccccc2)C1
133 to 135 | COc1ccc2nccc(NC(=O)N3CCN(CC(O)c4cnc5ccccc5n4)CC3)c2n1 (stereo unspecified)
110 to 112 | NC(=O)CN1C(=O)C[C@@H]2CCCCCC[C@@H]21 (relative stereo)
226 to 228 | CCCNC(=S)Nc1nc2ccc(OC(F)(F)F)cc2s1
293 to 295 | Cc1ccc(-c2c(-c3ccc(S(N)(=O)=O)cc3)[nH]c3ccccc23)cc1
220 to 226 | CN(C)c1ccc(NC(=O)Nc2ccc3c(ccn3C)c2)cn1
125 to 130 | Cn1ccnc1Sc1ccc(Nc2c(C#N)cnc3cc(N4CCC(N5CCCC5)CC4)ccc23)cc1Cl
247 to 249 | COc1cc2c(=O)c(Cc3cccnc3)cn3c4cc(Br)ccc4c(=O)c(c1)c23
143 to 146 | Oc1cccc2c1CC1OC1C2 (stereo unspecified)
114 to 115 | CC(C)OC1(c2ccc(Cl)cc2)OC(c2ccncc2)=Nc2ccccc21 (stereo unspecified)
> 250 | CCn1nc(-c2nc(C#N)c(N)nc2-c2ccccc2)ccc1=O
110 to 111 | CC(=O)SCC(CC(N)=O)C(=O)O (stereo unspecified)
146 to 148 | O=c1cc(C(F)(F)F)cnn1-c1c(F)cc(Cl)c(O)c1[N+](=O)[O-]
192 to 194 | Cc1nnc(NC2CCCCC2)s1
137 to 139 | CCCCCOC(=O)c1cc(O)c2c(n1)c(C)cc1c(O)cc(C(=O)OCCCCC)nc12
100 to 101 | CCCCCCCCCCCCNC(=O)c1cc(Br)c(OCCn2cnnn2)c(-c2cccc(OC)c2)c1
227 to 229 | CC(C)C1Sc2ccccc2N(CC(N)=O)C(=O)C1N (stereo unspecified)
132 | c1ccc(COc2ccc3c(C45CC6CC(CC(C6)C4)C5)noc3c2)cc1
119 to 122 | CC(=O)NC[C@H]1CN(c2ccc(C3=CCSCC3)c(F)c2)C(=O)O1
159 to 162 | O=C(O)c1ccc(NCCCOc2ccccc2)cc1
39 to 40 | COC(=O)CCc1conc1-c1ccc(F)c(Cl)c1

Continued, molecule first:

SMILES | melting point [°C]
CN(C)c1ccc(C=CC(O)Cc2ccccc2)cc1 (stereo unspecified) | 158 to 162
O=P(O)(O)c1ccc2ccccc2n1 | 200
COc1ccc(CO)cc1OCc1nc(-c2ccco2)oc1C | 145 to 146
O=C1N=C(Cc2c[nH]c3ccccc23)C(CCc2cc(C(F)(F)F)cc(C(F)(F)F)c2)O1 (stereo unspecified) | 178 to 180
CCCCCCCCc1ccc(C#Cc2c3ccccc3c(C#Cc3ccc(CCCCCCCC)cc3)c3ccccc23)cc1 | 131 to 133
CC(C)CC(C(=O)O)C(=O)O | 102 to 105
CC(O)CCCCc1ccc(S(N)(=O)=O)s1 (stereo unspecified) | 75 to 76
O=C(O)CCc1cn(Cc2ccc3cc(OCc4ccccc4F)ccc3c2)cc1-c1ccccc1 | 143 to 144
CC(=O)N(C)Cc1ccc(CCn2cnc3cc(-c4ccc(Cl)cc4)sc3c2=O)cc1 | 176 to 178
CCC(=O)Nc1ccc(N)c(=O)cc1 | 203 to 205
O=C(NO)c1ccc(CNC(=O)c2[nH]c(-c3ccccc3)cc2-c2ccc(F)c(F)c2)cc1 | 148 to 150
CCOC(=O)c1oc(C)c(O)c1O | 120 to 121
O=C(O)c1ccc(O)c(Cl)c1Cl | 200
O=C(NC1C2CC3CC(C2)CC1C3)c1cc(-c2ccc(Cl)cc2)n(-c2ccc(Cl)cc2Cl)n1 (stereo unspecified) | 203
CCOC(=O)c1c(-c2ccccc2Cl)c2cc(CC)sc2[nH]c1=O | 126 to 127
CCOC(=O)[C@H](CCc1ccccc1)NC(=O)C(C)(C)NC(=O)[C@@H](S)C1CCOCC1 | 157 to 158
COc1cc(Br)c2c(c1OC)C(=O)CC2 | 180 to 182
Cc1cc(NC(=O)CC(C)(C)C)c(C)c2c1OC(C)(C)C2c1ccc(C(C)C)cc1 (stereo unspecified) | 118 to 119
CCOCCOc1cc(C(C)C)c(NC(=O)CN2CCN(CCSc3nc4ccccc4o3)CC2)c(C(C)C)c1 | 92 to 95
COC(=O)C(CCCCN1C(=O)c2ccccc2C1=O)C(=O)OC | 55 to 58
CCc1nn(C(=O)NS(=O)(=O)c2ccccc2C(=O)OC)c(=O)n1C | 131
CCCCNC(=O)ON1C(C)(C)CC(OC(=O)c2cccc(C(=O)OC3CC(C)(C)N(OC(=O)NCCCC)C(C)(C)C3)c2)CC1(C)C | 176 to 177
O=[N+]([O-])c1ccc(-c2cccs2)cc1-c1cccs1 | 111 to 112
CC(C)(C)OC(=O)NCCCn1c(CCCOc2ccccc2)nc2c(N)nc3ccccc3c21 | 151 to 153
COc1cccc([C@H]2O[C@H](CC(=O)Nc3ccc(OCCCc4ccccc4)c(CCC(=O)O)c3)C(=O)N(CC(C)(C)CO)c3ccc(Cl)cc32)c1OC | 147 to 149

SMILES | melting point [°C]
CN(C)c1nn(-c2cc(F)c(C#N)cc2F)c(=O)n1C | 131 to 133
NCCNc1cc(NCCO)c([N+](=O)[O-])c(NCCO)c1 | 220
CC(C)(C)C(=O)C(Br)C(c1ccc(Cl)cc1Cl)S(=O)(=O)c1ccccc1 (stereo unspecified) | 135 to 136
Cc1ccc(S(=O)(=O)N2CCCC2c2ccco2)cc1 (racemic) | 58
O=C(O)c1ccc2c(c1)C(=O)C(c1nc3ccccc3cc1O)C2=O (stereo unspecified) | > 350
COc1ccc(-c2ccc3cnc(Nc4ccc(N5CCN(C)CC5)cc4OC)nn23)cn1 | 170 to 173
CC12CCC(=O)C=C1CCC1C2CCC2(C)C(C(=O)C3CCCCC3)CCC12 (stereo unspecified) | 159 to 161
CN1CCC(c2c(O)cc(O)c3c(=O)cc(Oc4ccccc4Cl)oc23)C(O)C1 (stereo unspecified) | 105
FC(F)(F)CN1CCC(n2ccc3ccccc32)CC1 | 79 to 81
CS(=O)(=O)c1cccc(S(C)(=O)=O)n1 | 192 to 195
O=C(O)c1ccc(N2C(=O)c3ccc([N+](=O)[O-])cc3C2=O)cc1 | 331 to 332
Cc1ccc(-c2cccc(/C=C/C(=O)Nc3ccc(C(O)c4ccccn4)cc3)c2)cc1 (stereo unspecified) | 162 to 165
Nc1ncc(-c2ccc(F)cc2)nc1C(=O)Nc1cccnc1 | 193 to 197
O=c1c2ncn3c2n(c(=O)n1Cc1ccc([N+](=O)[O-])cc1)CC=C3c1cccc(C(F)(F)F)c1 | 230 to 232
CCN(CC)c1cncc(C(=O)Nc2nnn[nH]2)n1 | 217 to 218
O=C1C=C(c2ccccc2)S(=O)(=O)C(c2cccs2)=C1 | 162 to 164
O=C(OCc1ccc([N+](=O)[O-])cc1)OCc1ccc([N+](=O)[O-])cc1 | 156 to 158
Nc1cccc(SCc2ccccc2)n1 | 65 to 66
O=C(O)CCC(=O)c1ccc2[nH]c3nc(Cl)ccc3c2c1 | 281
CCCOc1ccc(S(C)(=O)=O)cc1C(=O)Nc1c(C(N)=O)nn(CC2CC2)c1CC | 185 to 186
COc1ccc2c(c1)C(N1CCN(C)CC1)c1ccccc1CC2 (stereo unspecified) | 119 to 120
COC(=O)c1csc(CCCc2cc3c(=O)[nH]c(N)nc3[nH]2)c1 | 182 to 183
CCOC(=O)c1ccc(CBr)cc1OC | 70 to 71
Fc1ccc(F)c2c(NCCc3ccc(Oc4ccnc(C(F)(F)F)c4Cl)cc3)ncnc12 | 129 to 131
C#CCCCCOc1ccc(/C=C/C(=O)Nc2ccccc2C(=O)O)cc1OC | 148 to 150
